Here are results for 5 compounds from ChEMBL document CHEMBL1143688 (J Med Chem, 2007).

Experiment [1] concerns the target Phosphodiesterase 3 (Homo sapiens, UniProt Q14432+Q13370). Put plainly: Inhibition of human platelet PDE3.
For experiment [2], the system named is Plasma. Put plainly: Inhibition of 10.0 ug/mL collagen-induced platelet aggregation in human platelet rich plasma. Format: functional.

The term IC50 denotes the concentration that inhibits the measured activity by half. High values mean a need for much substance, low ones inhibition by little substance. In experiment [1], `O=C1CCc2cc(OCCCCc3nnnn3C3CCCCC3)ccc2N1` [CILOSTAZOL] returned a half-maximal inhibitory concentration (IC50) of 0.28 µM. The compound `O=c1cc(N2CCNCC2)oc2ccccc12` returned an IC50 in experiment [2] of 60 µM. On to `O=c1cc(N2CCNCC2)c2ccccc2o1`, for which the midpoint of inhibition in experiment [2], the IC50, lay at 36 µM.

For the compound `Cc1c(OCc2cccnc2)ccc2c(N3CCNCC3)cc(=O)oc12`, the IC50 in experiment [1] was 0.037 µM. Same read-out and setting: the value for `Cc1c(OCCN2CCOCC2)ccc2c(N3CCNCC3)cc(=O)oc12` was 0.078 µM.
